Experiment [1] deals with Methanogenesis. Format: cell-based.
The subject of experiment [2] is VFA production. It counts as cell-based.

Data on four molecules can be found in patent US20160183564A1 (priority 2013, published 2016).

Values joined by “and” are separate entries in the source; they are usually repeats but may differ in a detail not shown here. Equal entries are not always repeated.

As to `O=[N+]([O-])c1ccc(NCCO)cc1` [2-(4-Nitro-phenylamino)-ethanol], the “Effect on Methanogenesis (% compared to control)” value (“Effect … (% compared to control)” for short) in experiment [1] was −12%.
As to `O=[N+]([O-])OCCCO` [3-nitrooxy propanol, 3-Nitrooxypropanol], in experiment [2], the “VFA profile (as percentage of total VFA) But.” value was 6 percentage of total VFA, the “VFA profile (as percentage of total VFA) Prop.” value is listed as 34 percentage of total VFA and the “VFA profile (as percentage of total VFA) ace.” value is 59 percentage of total VFA. The “Effect … (% compared to control)” value in experiment [1] is −9% and −8%.
Regarding `CCCNc1ccc([N+](=O)[O-])cc1` [(4-Nitro-phenyl)-propyl-amine], in experiment [1], the “Effect … (% compared to control)” value is reported as −11%.
On to `Nc1ccc([N+](=O)[O-])cc1` [(4-nitro-phenyl)-amine], for which, in experiment [2], the “VFA profile (as percentage of total VFA) But.” value is reported as 8 percentage of total VFA, the “VFA profile (as percentage of total VFA) Prop.” value was 33 percentage of total VFA and the “VFA profile (as percentage of total VFA) ace.” value is listed as 59 percentage of total VFA. In addition, in experiment [1], the “Effect … (% compared to control)” value is recorded as −15%.
